Laboratory results taken from article PMC7687371, “Quantitative in Vitro to in Vivo Extrapolation (QIVIVE) for Predicting Reduced Anogenital Distance Produced by Anti-Androgenic Pesticides in a Rodent Model for Male Reproductive Disorders” (Environmental Health Perspectives, 2020).

System: Sprague-Dawley rats
Assay: In vivo Study 4 (dimethomorph follow-up), reproductive/developmental toxicity, AGD

COc1ccc(C(=CC(=O)N2CCOCC2)c2ccc(Cl)cc2)cc1OC [Dimethomorph, dimethomorph]
% perinatal loss (20 mg/kg/bw): 3.5 ± 6.3% | % postimplantation loss (20 mg/kg/bw): 2.6 ± 4.9% | % postnatal deaths (20 mg/kg/bw): 1.6 ± 3.7% | AGD females (mm) (20 mg/kg/bw): 2.0 ± 0.1 mm | AGD females (units) (20 mg/kg/bw): 12.4 ± 0.8 units | AGD index females (20 mg/kg/bw): 1.1 ± 0.1 | AGD index males (20 mg/kg/bw): 1.94 ± 0.1 | AGD males (mm) (20 mg/kg/bw): 3.74 ± 0.2 mm | % perinatal loss (60 mg/kg/bw): 5.7 ± 6.0% | % postimplantation loss (60 mg/kg/bw): 4.3 ± 5.2% | % postnatal deaths (60 mg/kg/bw): 1.4 ± 3.1% | AGD females (mm) (60 mg/kg/bw): 1.9 ± 0.1 mm | AGD females (units) (60 mg/kg/bw): 11.8 ± 0.6 units | AGD index females (60 mg/kg/bw): 1.0 ± 0.0 | AGD index males (60 mg/kg/bw): 1.87 ± 0.1 | AGD males (mm) (60 mg/kg/bw): 3.51 ± 0.2 mm | Maternal toxicity (180 mg/kg per day, increased postimplantation and perinatal loss, higher postnatal death rate): indications for a mild maternal toxicity | % perinatal loss (180 mg/kg/bw): 13.3 ± 11.8% | % postimplantation loss (180 mg/kg/bw): 10.1 ± 12.6% | % postnatal deaths (180 mg/kg/bw): 3.2 ± 7.2% | AGD females (mm) (180 mg/kg/bw): 2.0 ± 0.2 mm | AGD females (units) (180 mg/kg/bw): 12.1 ± 0.9 units | AGD index females (180 mg/kg/bw): 1.1 ± 0.0 | AGD index males (180 mg/kg/bw): 1.90 ± 0.11 | AGD males (mm) (180 mg/kg/bw): 3.57 ± 0.2 mm
